Measured values: ChEMBL document CHEMBL4152385, “Synthesis, Receptor Affinity, and Antiallodynic Activity of Spirocyclic σ Receptor Ligands with Exocyclic Amino Moiety” (J Med Chem, 2018)
pIC50, pKi: −log10 of the molar value. Each block holds one compound with its values, some of them ahead of it. Calls of active or inactive are those of the source. The rule behind the calls is not given here.

Experiments:
[1] = target: Sigma non-opioid intracellular receptor 1 (Cavia porcellus, UniProt Q60492); assay: Displacement of [3H]-(+)-pentazocine from sigma1 receptor in guinea pig brain cortex membranes incubated for 120 mins by scintillation counting method; assay type: cell membranes
[2] = target: T1, Sigma intracellular receptor 2 (Rattus norvegicus, UniProt Q5U3Y7); assay: Displacement of [3H]-di-o-tolylguanidine from sigma2 receptor in rat liver membranes incubated for 120 mins by scintillation counting method; assay type: cell membranes, Membrane
T1 sequence (Q5U3Y7 whole entry): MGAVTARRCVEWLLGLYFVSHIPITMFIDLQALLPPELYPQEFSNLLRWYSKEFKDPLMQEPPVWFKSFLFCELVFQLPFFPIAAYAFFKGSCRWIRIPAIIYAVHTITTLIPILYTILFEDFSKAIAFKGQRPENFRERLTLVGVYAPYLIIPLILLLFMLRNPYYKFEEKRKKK

Mus musculus [3] = assay: Antiallodynic activity in CD1 mouse model of capsaicin-induced mechanical allodynia assessed as effect on paw withdrawal latency time at 2 to 64 mg/kg, sc administered 30 mins before capsaicin addition and measured at 30 secs intervals; assay type: functional, organism-based
Mus musculus [4] = assay: Antiallodynic activity in CD1 mouse model of capsaicin-induced mechanical allodynia assessed as effect on paw withdrawal latency time at 4 to 64 mg/kg, sc administered 30 mins before capsaicin addition and measured at 30 secs intervals; assay type: functional, organism-based
[5] = Selectivity ratio of Ki for sigma2 receptor in rat liver membranes to Ki for sigma1 receptor in guinea pig brain cortex membranes; assay type: cell membranes
[6] = Stability in pH 2 aqueous HCl solution assessed as parent compound remaining after 24 hrs by HPLC; assay type: physicochemical; conditions: buffer, pH 2, 24 h
[7] = Displacement of [3H]-(+)-MK-801 from NMDA PCP binding site in pig brain cortex membrane incubated for 120 mins by scintillation counting method; assay type: cell membranes, Sus scrofa
[8] = target: Glutamate receptor ionotropic, NMDA 2B (Homo sapiens, UniProt Q13224); assay: Displacement of [3H]ifenprodil from GluN2B (unknown origin) expressed in mouse L(tk-) cell membranes incubated for 120 mins by scintillation counting method
Mus musculus [9] = assay: Antiallodynic activity in CD1 mouse model of capsaicin-induced mechanical allodynia assessed as effect on paw withdrawal latency time at 4 to 32 mg/kg, sc administered 5 mins after sigma1 receptor agonist PRE-084 dosing followed by capsaicin addition and measured after 30 mins post compound dose; assay type: functional, organism-based
[10] = Stability in pH 7.4 phosphate buffer assessed as parent compound remaining after 24 hrs by HPLC; assay type: physicochemical; conditions: pH 7.4, 24 h
in vitro = conditions: mouse, liver microsomes
Description: Metabolic stability in mouse liver microsomes assessed as compound remaining at 25 uM after 1 hr in presence of NADPH by LC-MS analysis

Mu-type opioid receptor = Mu-type opioid receptor (Cavia porcellus, UniProt P97266); assay: Displacement of [3H]DAMGO from MOR in guinea pig brain membranes incubated for 120 mins by scintillation counting method; assay type: cell membranes, Membrane
Mus musculus [11] = assay: Antiallodynic activity in CD1 mouse model of capsaicin-induced mechanical allodynia assessed as effect on paw withdrawal latency time at 32 mg/kg, sc administered 5 mins after sigma1 receptor agonist PRE-084 dosing followed by capsaicin addition and measured after 30 mins post compound dose; assay type: functional, organism-based
[12] = target: Delta-type opioid receptor (Rattus norvegicus, UniProt P33533); assay: Displacement of [3H]DPDPE from DOR in rat brain membranes incubated for 120 mins by scintillation counting method; assay type: cell membranes, Membrane
[13] = target: T1, Sigma intracellular receptor 2; assay: Displacement of [3H]-DTG from sigma2 receptor in rat liver membranes; assay type: cell membranes, Membrane
[14] = target: Kappa-type opioid receptor (Cavia porcellus, UniProt P41144); assay: Displacement of [3H]U-69,593 from KOR in guinea pig brain membranes incubated for 120 mins by scintillation counting method; assay type: cell membranes, Membrane
[15] = target: Sodium-dependent serotonin transporter (Homo sapiens) (UniProt P31645); assay: Inhibition of SERT (unknown origin) at 1 uM relative to control
[16] = target: T2, 5-hydroxytryptamine receptor 1A (Homo sapiens) (UniProt P08908); assay: Inhibition of 5-HT1A receptor (unknown origin) at 1 uM relative to control
T2 sequence (whole entry): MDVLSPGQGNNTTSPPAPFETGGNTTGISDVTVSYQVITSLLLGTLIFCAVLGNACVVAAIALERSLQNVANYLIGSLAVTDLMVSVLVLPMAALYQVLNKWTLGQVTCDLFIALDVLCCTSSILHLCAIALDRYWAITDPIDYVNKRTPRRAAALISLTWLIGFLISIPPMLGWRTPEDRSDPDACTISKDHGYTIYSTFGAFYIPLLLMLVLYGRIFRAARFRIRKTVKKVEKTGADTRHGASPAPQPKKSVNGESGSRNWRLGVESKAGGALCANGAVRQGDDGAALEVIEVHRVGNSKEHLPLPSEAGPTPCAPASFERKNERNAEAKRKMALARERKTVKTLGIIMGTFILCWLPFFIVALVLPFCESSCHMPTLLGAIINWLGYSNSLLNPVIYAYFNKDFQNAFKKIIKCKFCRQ

[17] = target: T3, Alpha-1A adrenergic receptor (Homo sapiens) (UniProt P35348); assay: Inhibition of alpha-1A adrenergic receptor (unknown origin) at 1 uM relative to control
T3 sequence (whole entry): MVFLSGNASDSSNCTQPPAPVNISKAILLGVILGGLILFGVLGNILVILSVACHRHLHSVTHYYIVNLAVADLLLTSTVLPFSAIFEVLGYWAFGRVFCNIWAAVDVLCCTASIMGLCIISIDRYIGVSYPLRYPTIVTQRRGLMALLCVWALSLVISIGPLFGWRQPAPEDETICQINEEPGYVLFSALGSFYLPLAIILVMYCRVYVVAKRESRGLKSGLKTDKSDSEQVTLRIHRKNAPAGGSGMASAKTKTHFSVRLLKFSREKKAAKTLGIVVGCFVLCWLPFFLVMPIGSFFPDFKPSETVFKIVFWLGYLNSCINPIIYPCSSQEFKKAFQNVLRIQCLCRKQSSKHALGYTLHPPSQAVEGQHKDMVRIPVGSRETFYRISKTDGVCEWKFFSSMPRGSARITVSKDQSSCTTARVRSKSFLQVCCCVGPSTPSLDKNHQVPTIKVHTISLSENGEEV

[18] = target: 5-hydroxytryptamine receptor 2B (Homo sapiens) (UniProt P41595); assay: Inhibition of 5-HT2B receptor (unknown origin) at 1 uM relative to control
[19] = target: Histamine H1 receptor (Homo sapiens) (UniProt P35367); assay: Inhibition of histamine H1 receptor (unknown origin) at 1 uM relative to control
[20] = target: Voltage-gated inwardly rectifying potassium channel KCNH2 (Homo sapiens, UniProt Q12809); assay: Inhibition of human ERG expressed in CHO cells by automated patch clamp assay; assay type: cell-based
[21] = target: Sodium-dependent noradrenaline transporter (Homo sapiens) (UniProt P23975); assay: Inhibition of NET (unknown origin) at 1 uM relative to control
[22] = target: Sodium-dependent dopamine transporter (Homo sapiens) (UniProt Q01959); assay: Inhibition of DAT (unknown origin) at 1 uM relative to control
Chain of Sodium-dependent dopamine transporter (Homo sapiens) (Q01959 whole entry): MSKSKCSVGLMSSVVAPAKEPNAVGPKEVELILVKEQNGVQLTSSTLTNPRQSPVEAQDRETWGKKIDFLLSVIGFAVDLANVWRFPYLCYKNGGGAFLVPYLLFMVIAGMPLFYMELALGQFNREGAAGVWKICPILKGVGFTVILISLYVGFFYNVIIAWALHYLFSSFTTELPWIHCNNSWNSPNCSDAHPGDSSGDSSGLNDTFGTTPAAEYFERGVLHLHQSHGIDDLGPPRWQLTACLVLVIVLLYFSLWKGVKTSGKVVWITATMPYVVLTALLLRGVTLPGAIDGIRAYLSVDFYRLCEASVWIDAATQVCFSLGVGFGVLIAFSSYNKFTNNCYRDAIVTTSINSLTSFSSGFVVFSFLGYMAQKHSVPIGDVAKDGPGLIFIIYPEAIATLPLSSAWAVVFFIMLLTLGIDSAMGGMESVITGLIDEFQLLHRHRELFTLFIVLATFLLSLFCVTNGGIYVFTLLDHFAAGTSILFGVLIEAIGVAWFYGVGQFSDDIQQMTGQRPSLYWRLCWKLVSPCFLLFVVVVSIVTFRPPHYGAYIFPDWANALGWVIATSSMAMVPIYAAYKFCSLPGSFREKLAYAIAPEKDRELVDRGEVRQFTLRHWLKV

Chain of Sigma non-opioid intracellular receptor 1 (Q60492 whole entry): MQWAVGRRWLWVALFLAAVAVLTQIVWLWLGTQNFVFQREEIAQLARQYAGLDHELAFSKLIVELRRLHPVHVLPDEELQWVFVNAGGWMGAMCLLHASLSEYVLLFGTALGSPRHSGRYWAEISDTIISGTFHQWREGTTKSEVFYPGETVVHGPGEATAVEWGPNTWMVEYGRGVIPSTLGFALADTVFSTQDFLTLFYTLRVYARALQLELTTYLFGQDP
Chain of Glutamate receptor ionotropic, NMDA 2B (Q13224 whole entry): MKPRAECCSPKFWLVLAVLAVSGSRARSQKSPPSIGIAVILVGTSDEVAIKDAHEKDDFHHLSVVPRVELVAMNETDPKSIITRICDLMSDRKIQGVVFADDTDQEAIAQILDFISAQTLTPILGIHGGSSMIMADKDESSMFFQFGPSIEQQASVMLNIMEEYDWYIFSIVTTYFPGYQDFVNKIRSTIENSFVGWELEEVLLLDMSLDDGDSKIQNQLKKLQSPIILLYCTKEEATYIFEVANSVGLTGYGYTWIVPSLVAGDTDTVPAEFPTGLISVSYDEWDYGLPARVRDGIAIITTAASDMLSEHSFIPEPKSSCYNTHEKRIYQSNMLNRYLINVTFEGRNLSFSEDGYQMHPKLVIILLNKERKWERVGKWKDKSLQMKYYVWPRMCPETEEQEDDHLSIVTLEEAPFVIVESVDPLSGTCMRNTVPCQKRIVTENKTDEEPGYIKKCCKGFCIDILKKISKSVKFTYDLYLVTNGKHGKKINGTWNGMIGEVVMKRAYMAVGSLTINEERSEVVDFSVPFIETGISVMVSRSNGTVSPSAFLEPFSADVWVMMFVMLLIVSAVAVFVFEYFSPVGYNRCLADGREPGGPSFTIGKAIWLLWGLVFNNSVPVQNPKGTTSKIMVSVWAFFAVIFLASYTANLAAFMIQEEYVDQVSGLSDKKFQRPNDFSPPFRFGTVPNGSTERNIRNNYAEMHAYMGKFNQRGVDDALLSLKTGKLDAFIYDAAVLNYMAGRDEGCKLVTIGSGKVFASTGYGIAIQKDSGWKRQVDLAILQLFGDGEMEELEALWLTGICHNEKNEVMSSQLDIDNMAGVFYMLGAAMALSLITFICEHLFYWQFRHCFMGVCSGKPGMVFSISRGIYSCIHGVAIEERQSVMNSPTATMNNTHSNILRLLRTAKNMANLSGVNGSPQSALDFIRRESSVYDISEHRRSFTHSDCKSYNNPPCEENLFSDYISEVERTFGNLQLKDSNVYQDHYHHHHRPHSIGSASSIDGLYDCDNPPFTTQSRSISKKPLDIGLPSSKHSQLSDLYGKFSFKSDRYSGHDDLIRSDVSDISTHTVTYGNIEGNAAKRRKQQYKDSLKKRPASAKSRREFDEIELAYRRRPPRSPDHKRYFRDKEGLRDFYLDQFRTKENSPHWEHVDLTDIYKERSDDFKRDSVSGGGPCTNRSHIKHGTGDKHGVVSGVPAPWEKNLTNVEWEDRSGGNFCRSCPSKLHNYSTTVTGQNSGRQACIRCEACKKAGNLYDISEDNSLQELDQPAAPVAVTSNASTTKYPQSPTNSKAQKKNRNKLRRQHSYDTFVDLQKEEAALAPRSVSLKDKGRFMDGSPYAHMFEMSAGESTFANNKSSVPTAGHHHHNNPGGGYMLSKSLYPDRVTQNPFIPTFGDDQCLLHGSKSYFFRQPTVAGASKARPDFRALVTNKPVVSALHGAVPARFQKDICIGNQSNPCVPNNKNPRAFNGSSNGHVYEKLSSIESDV
Chain of Delta-type opioid receptor (P33533 whole entry): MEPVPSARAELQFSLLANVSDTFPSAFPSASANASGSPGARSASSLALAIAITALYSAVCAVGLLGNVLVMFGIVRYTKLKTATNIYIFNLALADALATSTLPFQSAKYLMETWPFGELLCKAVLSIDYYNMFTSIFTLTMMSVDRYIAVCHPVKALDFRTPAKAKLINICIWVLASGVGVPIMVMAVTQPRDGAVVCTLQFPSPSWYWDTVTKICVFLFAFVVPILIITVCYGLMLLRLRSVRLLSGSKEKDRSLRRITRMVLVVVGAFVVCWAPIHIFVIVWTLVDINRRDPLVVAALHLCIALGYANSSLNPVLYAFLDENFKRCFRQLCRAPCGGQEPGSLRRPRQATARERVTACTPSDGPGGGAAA
Chain of Kappa-type opioid receptor (P41144 whole entry): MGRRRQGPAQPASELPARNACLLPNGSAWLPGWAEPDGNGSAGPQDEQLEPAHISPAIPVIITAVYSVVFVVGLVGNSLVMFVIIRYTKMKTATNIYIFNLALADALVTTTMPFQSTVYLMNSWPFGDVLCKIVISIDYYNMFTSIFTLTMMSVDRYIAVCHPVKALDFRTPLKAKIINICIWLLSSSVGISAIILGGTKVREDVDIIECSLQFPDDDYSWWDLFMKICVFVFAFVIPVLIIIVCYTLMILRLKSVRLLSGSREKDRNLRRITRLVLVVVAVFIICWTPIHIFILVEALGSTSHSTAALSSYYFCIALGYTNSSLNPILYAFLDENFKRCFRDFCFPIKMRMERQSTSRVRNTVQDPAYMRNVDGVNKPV
Chain of Histamine H1 receptor (Homo sapiens) (P35367 whole entry): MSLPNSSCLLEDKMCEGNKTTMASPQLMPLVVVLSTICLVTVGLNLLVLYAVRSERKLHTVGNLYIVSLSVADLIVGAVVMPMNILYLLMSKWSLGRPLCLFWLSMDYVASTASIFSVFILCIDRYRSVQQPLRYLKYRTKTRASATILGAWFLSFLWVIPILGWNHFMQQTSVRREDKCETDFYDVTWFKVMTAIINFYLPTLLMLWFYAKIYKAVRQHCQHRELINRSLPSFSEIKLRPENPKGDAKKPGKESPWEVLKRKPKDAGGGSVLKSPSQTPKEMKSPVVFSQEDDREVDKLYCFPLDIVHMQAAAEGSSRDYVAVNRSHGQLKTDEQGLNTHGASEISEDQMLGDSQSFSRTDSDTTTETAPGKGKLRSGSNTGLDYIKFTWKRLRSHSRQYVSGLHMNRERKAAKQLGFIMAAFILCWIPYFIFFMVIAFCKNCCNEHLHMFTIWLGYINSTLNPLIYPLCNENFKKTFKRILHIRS
Chain of Mu-type opioid receptor (P97266 whole entry): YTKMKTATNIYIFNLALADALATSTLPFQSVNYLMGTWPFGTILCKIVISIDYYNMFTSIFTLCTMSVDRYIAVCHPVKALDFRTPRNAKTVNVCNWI
Chain of Sodium-dependent noradrenaline transporter (Homo sapiens) (P23975 whole entry): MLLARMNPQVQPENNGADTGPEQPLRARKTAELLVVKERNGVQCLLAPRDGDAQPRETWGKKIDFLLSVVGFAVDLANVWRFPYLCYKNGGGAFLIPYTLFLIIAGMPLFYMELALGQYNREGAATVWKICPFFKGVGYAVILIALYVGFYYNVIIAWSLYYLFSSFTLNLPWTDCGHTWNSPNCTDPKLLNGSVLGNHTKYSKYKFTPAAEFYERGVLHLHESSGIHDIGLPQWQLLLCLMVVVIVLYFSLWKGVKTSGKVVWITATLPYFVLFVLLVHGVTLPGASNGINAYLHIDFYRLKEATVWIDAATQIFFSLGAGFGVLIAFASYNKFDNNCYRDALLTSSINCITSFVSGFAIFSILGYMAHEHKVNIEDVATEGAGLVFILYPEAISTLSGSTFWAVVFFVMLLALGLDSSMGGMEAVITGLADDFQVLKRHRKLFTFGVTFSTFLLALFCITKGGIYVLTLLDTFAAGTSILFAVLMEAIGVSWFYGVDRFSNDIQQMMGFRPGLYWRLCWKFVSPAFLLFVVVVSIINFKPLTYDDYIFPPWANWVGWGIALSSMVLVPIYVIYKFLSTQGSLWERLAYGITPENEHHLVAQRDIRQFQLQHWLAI
Chain of Sodium-dependent serotonin transporter (Homo sapiens) (P31645 whole entry, looked up): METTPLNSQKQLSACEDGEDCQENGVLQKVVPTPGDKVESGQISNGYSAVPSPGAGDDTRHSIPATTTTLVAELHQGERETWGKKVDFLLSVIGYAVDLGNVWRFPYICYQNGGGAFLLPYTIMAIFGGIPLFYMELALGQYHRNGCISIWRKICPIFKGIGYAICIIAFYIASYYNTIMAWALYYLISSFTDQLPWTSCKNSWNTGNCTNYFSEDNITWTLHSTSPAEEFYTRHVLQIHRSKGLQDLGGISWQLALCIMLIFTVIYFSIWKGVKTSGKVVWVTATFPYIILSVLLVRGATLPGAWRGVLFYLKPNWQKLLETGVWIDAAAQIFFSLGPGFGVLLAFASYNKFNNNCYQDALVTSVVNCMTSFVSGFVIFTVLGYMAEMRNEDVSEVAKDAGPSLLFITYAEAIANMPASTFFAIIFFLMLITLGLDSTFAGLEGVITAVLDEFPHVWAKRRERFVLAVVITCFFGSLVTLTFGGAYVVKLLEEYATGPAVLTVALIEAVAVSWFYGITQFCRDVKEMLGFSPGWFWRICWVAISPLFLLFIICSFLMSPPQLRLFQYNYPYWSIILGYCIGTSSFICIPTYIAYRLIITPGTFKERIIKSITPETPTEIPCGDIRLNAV

- pKi [2]: 6.42
Compound: Cc1ccc(CNC2CCC3(CC2)O[C@H](CCO)Cc2ccccc23)c(C)c1 (stereo not given in full)

- pKi [2]: 6.98
Compound: COc1cc2c(cc1OC)CN(C1CCC3(CC1)O[C@@H](OC)Cc1ccccc13)CC2 (stereo not given in full)

- pKi [1]: 6.20
Compound: CO[C@H]1Cc2ccccc2C2(CCC(NCCCc3cn(-c4ccc(F)cc4)c4ccccc34)CC2)O1 (stereo not given in full)

- pKi [2]: 6.67
- Ratio Ki [5]: 50
- pKi [1]: 8.36
Compound: CO[C@H]1Cc2ccccc2C2(CCC(N3CCN(C4CCCCC4)CC3)CC2)O1 (stereo not given in full)

- Stability [6]: Stable
- pKi [7]: < 6.00
- pKi [8]: 7.51
- pKi [2]: 6.36
- Stability [10]: Stable
- remaining at 1 h, 25 µM (in vitro): 69.5%
- pKi (Mu-type opioid receptor): 6.36
- pKi [1]: 7.72
- pKi [12]: 6.19
Compound: FCC[C@H]1Cc2ccccc2C2(CCC(N3CCN(C4CCCCC4)CC3)CC2)O1 (stereo not given in full)
- Activity (Mus musculus [9]): inactive
- Activity (Mus musculus [3]): Active
- Activity (Mus musculus [4]): Active
- Activity (Mus musculus [11]): inactive

- pKi [2]: 6.45
Compound: CCOC(=O)C[C@@H]1Cc2ccccc2C2(CCC(N3CCN(C4CCCCC4)CC3)CC2)O1 (stereo not given in full)

- pKi [1]: 7.11
Compound: O[C@@H]1Cc2ccccc2C2(CCC(N3CCN(C4CCCCC4)CC3)CC2)O1 (stereo not given in full)

- Stability [6]: Stable
- pKi [7]: < 6.00
- pKi [8]: 7.47
- pKi [14]: 6.11
- inhibition [15]: < 50%
- inhibition [16]: 55%
- pKi [2]: 7.57
- inhibition [17]: < 50%
- Stability [10]: Stable
- inhibition [18]: < 50%
- inhibition [19]: 76%
- pKi [1]: 7.33
- inhibition [21]: < 50%
- inhibition [22]: < 50%
Compound: O[C@H]1Cc2ccccc2C2(CCC(N3CCN(C4CCCCC4)CC3)CC2)O1 (stereo not given in full)
- pIC50 [20]: 5.49

Continued, compound first:

Compound: OCC[C@H]1Cc2ccccc2C2(CCC(N3CCN(C4CCCCC4)CC3)CC2)O1 (stereo not given in full)
- pKi [1]: 7.55

Compound: CN1CCN(CCc2ccc(Cl)c(Cl)c2)CC1
- Activity (Mus musculus [3]): Active
- Activity (Mus musculus [4]): Active

Compound: FCC[C@@H]1Cc2ccccc2C2(CCC(NC3CCc4ccccc4CC3)CC2)O1 (stereo not given in full)
- pKi [2]: 6.52
- pKi [1]: 6.18

Compound: CO[C@H]1Cc2ccccc2C2(CCC(NCc3ccc(C)cc3C)CC2)O1 (stereo not given in full)
- pKi [2]: 7.27

Compound: Cc1ccc(CNC2CCC3(CC2)O[C@@H](CCO)Cc2ccccc23)c(C)c1 (stereo not given in full)
- pKi [2]: 6.75
- pKi [1]: 6.26

Compound: CCOC(=O)C[C@H]1Cc2ccccc2C2(CCC(NCc3ccc(C)cc3C)CC2)O1 (stereo not given in full)
- pKi [2]: 6.80
- pKi [1]: 6.26

Compound: COc1cc2c(cc1OC)CN(CCCCNC(=O)c1cc(Br)cc(OC)c1OC)CC2
- pKi [2]: 8.09
- pKi [13]: 8.09

Compound: COc1cc2c(cc1OC)CN(C1CCC3(CC1)O[C@H](CCF)Cc1ccccc13)CC2 (stereo not given in full)
- pKi [1]: 6.09

Compound: Cc1ccc(CNC2CCC3(CC2)O[C@@H](CCF)Cc2ccccc23)c(C)c1 (stereo not given in full)
- pKi [1]: 6.02
